{"source": "patent US20110059985A1", "about": "“NOVEL FORMULATION” (priority 2007, published 2011)", "key": {"[1]": {"settings": "not measured, data according to Neues Rezeptur-Formularium, cited from earlier work"}, "[2]": {"test": "Abafungin solubility in excipients (Example 1)", "assay_type": "physicochemical", "description": "To order to study the solubility of abafungin, abafungin was dissolved in a number of excipients."}, "[3]": {"test": "Fungicidal concentrations of abafungin (stated in Example 4)", "assay_type": "cell-based"}}, "note": "Like-named read-outs stand apart in the source and are kept apart here. Marks after values point to notes of the source that are not given here.", "data": [{"smiles": "Cc1cc(C2CCCCC2)n(O)c(=O)c1", "note": "[Ciclopirox Olamine]", "values": [{"measurement": "maximum solubility", "setting": "[1]; Ethanol gel (NRF 11.84)", "result": "~soluble*^5"}, {"measurement": "maximum solubility", "setting": "[1]; Pure ethanol", "result": "~soluble*^5"}, {"measurement": "maximum solubility", "setting": "[1]; Pure water", "result": "~1-3%*^5"}]}, {"smiles": "Cc1ccc(Oc2ccccc2-c2csc(N=C3NCCCN3)n2)c(C)c1", "note": "[abafungin]", "values": [{"measurement": "Not soluble", "setting": "[2]; excipient: MPEG 550", "result": "✓"}, {"measurement": "Not soluble", "setting": "[2]; excipient: MPEG 2000", "result": "✓"}, {"measurement": "Not soluble", "setting": "[2]; excipient: PEG 400", "result": "✓"}, {"measurement": "Not soluble", "setting": "[2]; excipient: PEG 1500", "result": "✓"}, {"measurement": "Not soluble", "setting": "[2]; excipient: PEG 4500", "result": "✓"}, {"measurement": "Not soluble", "setting": "[2]; excipient: PEG 6000", "result": "✓"}, {"measurement": "Not soluble", "setting": "[2]; excipient: PEG 12000", "result": "✓"}, {"measurement": "Not soluble", "setting": "[2]; excipient: PEG 20000", "result": "✓"}, {"measurement": "Not soluble", "setting": "[2]; excipient: cetearyl ethylhexanoate (cosmetic oils)", "result": "✓"}, {"measurement": "Not soluble", "setting": "[2]; excipient: decyl oleate (cosmetic oils)", "result": "✓"}, {"measurement": "Not soluble", "setting": "[2]; excipient: ethanol", "result": "✓"}, {"measurement": "Not soluble", "setting": "[2]; excipient: ethanol 70%", "result": "✓"}, {"measurement": "Not soluble", "setting": "[2]; excipient: glycerine", "result": "✓"}, {"measurement": "Not soluble", "setting": "[2]; excipient: isopropanol", "result": "✓"}, {"measurement": "Not soluble", "setting": "[2]; excipient: isopropyl myristate (cosmetic oils)", "result": "✓"}, {"measurement": "Not soluble", "setting": "[2]; excipient: isopropyl palmitate (cosmetic oils)", "result": "✓"}, {"measurement": "Not soluble", "setting": "[2]; excipient: medium chain triglyceride (cosmetic oils)", "result": "✓"}, {"measurement": "Not soluble", "setting": "[2]; excipient: propylene glycol", "result": "✓"}, {"measurement": "Soluble", "setting": "[2]; excipient: transcutol", "result": "✓ (3%)"}, {"measurement": "Not soluble", "setting": "[2]; excipient: water", "result": "✓"}, {"measurement": "solubility", "setting": "[2]; mixture of water, polyethylene glycol, polyethylene glycol monomethyl ether and an acid such as formic acid", "result": "soluble"}, {"measurement": "fungicidal concentrations", "setting": "[3]", "result": "16 to 30", "unit": "µg/mL"}]}]}
